Reference: patent US6500849B1, “1-alkyl-, 1-alkenyl-, and 1-alkynylaryl-2-amino 1,3-propanediols and related compounds” (Aventis Pharmaceuticals Inc., priority 1990, dated 2002)
pIC50: −log10 of the molar value.

Tests used:
Bact. fragilis = experiment: Anerobic antibacterial assay (agar dilution, Wilkins-Chalgren agar); type: cell-based; details: anaerobic, 48 hours at 37° C.
Bact. vulgatus = experiment: as above; type: cell-based; details: Bact. vulgatus 1446; anaerobic; 48 hours at 37° C.
Spaeroph. freundii = experiment: as above; type: cell-based; details: Spaeroph. freundii 1369; anaerobic; 48 hours at 37° C.
Trichophyton Rubrum = experiment: Antifungal assay (microtitration technique); type: cell-based; details: Trichophyton Rubrum strain 101/85; 5 days at 30° C.
Procedure: (§1) The microtiter plate is prepared as follows: The wells are each filled (2 rows/strain) with 50 μl neopeptone-dextrose broth (12-channel pipette). In addition, one row/strain is coated with 50 μl yeast-nitrogen base/well for yeasts and moulds. […] All wells are then inoculated with 150 μl standardized organism suspension (yeasts: 1×10^3 organisms/ml suspension; cutaneous fungi and moulds: 1.6×10^5 organisms/ml suspension); the total volume is 200 μl per well. There is also a growth control (inoculated, not medicated), a solvent control (inoculated, not medicated, containing solvent as in medicated rows) and a negative control (not inoculated, not medicated). Incubation for 5 days at 30° C. is followed by photometric evaluation. The obtained measurements are checked visually (macroscopically and microscopically) and corrected where necessary. Criteria for Evaluation of the Antimycotic Effect a. Photometric measurements (matrix method) b. Growth, macroscopic evaluation c. Growth, microscopic evaluation (inversion light microscope, magn. 64×).

Candida Albicans = experiment: Antifungal assay (microtitration technique); type: cell-based; details: Candida Albicans strain 200/175; 5 days at 30° C.
Procedure: as §1

Trichophyton Vaginalis = experiment: Antifungal assay (microtitration technique); type: cell-based; details: Trichophyton Vaginalis strain 111/216; 5 days at 30° C.
Procedure: as §1

[1] = system: Trichophyton Mentagrophytes; experiment: Antifungal assay (microtitration technique); type: cell-based; details: Trichophyton Mentagrophytes strain 100/25; 5 days at 30° C.
Procedure: as §1

Microsporum Canis = experiment: Antifungal assay (microtitration technique); type: cell-based; details: Microsporum Canis strain 150/353; 5 days at 30° C.
Procedure: as §1

Aspergillus Niger = experiment: Antifungal assay (microtitration technique); type: cell-based; details: Aspergillus Niger strain 500/284; 5 days at 30° C.
Procedure: as §1

Clost. tetani = experiment: Anerobic antibacterial assay (agar dilution, Wilkins-Chalgren agar); type: cell-based; details: Clost. tetani 19406; anaerobic; 48 hours at 37° C.
Propionibact. acnes = experiment: as above; type: cell-based; details: anaerobic, 48 hours at 37° C.
Bact. ovatus = experiment: as above; type: cell-based; details: Bact. ovatus 103; anaerobic; 48 hours at 37° C.
Bact. distasonis = experiment: as above; type: cell-based; details: Bact. distasonis 1366; anaerobic; 48 hours at 37° C.
Fusobact. varium = experiment: as above; type: cell-based; details: anaerobic, 48 hours at 37° C.
Bact. thetaiotaom. = experiment: as above; type: cell-based; details: anaerobic, 48 hours at 37° C.
Peptostr. anaerobius = experiment: as above; type: cell-based; details: Peptostr. anaerobius 932; anaerobic; 48 hours at 37° C.
Clost. perfringens = experiment: microbe, parasite or virus in culture; type: cell-based; details: Clost. perfringens 194; anaerobic; 48 hours at 37° C.
Protein kinase C = Protein kinase C assay (32P incorporation into Type III histone); type: biochemical, rat; details: rat brain protein kinase C; phosphatidylserine/diacylglycerol stimulated; read-out: Protein Kinase Inhibitory Activity IC50
Procedure: (see U. Kikkawa, et al., Biochemical and Biophysical Research Communications, 135, 636 (1986) and R. M. Bell, et al. “Methods in Enzymology, Hormone Action,” Part J, P.M. Conn, Ed., Academic Press, Inc., New York, N.Y. 1986, page 353). Protein kinase C enzyme extract was prepared from the brain of male Wistar rats weighing 180 to 200 g and purified by the method of U. Kikkawa, et al., ibid. 636. The purified extract was stored at −80° C., and aliquots were used in the protein kinase C assay performed by a modification of the method of R. M. Bell, et al., ibid. al 354. To perform the assay, duplicate aliquots of duplicate samples are employed. Basal or unstimulated protein kinase C, phosphatidylserine/diacylglycerol stimulated protein kinase C, and test samples are run in each assay. […] The assay tubes were allowed to warm to 25° C. and an 8 μl mixture of adenosine 5′-triphosphate (100 μM) and ^32P-adenosine triphosphate (1 to 2×10^5 counts per minute) was added to each tube for a final volume of 80 μl per tube. After 2 min, the reaction (the incorporation of phosphorous into Type III histone) was terminated by spotting the assay mixture on phosphocellulose paper. The spots are cut out of the paper and the radioactivity (counts per min) of each spot was determined in a scintillation counter.

E. cloacae = experiment: Aerobic antibacterial assay (agar dilution, Mueller-Hinton agar); details: E. cloacae 1321E; aerobic; 24 hours at 37° C.
[2] = system: female Swiss Webster mice; experiment: Arachidonic acid-induced ear edema assay; type: in vivo; details: 1 mg/ear topical, arachidonic acid 4 mg/ear
Procedure: In the arachidonic acid-induced ear edema assay, the test compound was dissolved in 30/70 propylene glycol/ethanol and was applied to both ears of groups of 6 female Swiss Webster mice, which were housed together in a cage under standard conditions for 1 week prior to use with food and water ad lib, at a volume of 20 μl so that a total of 1.0 mg of test compound was delivered to each ear over the inner and outer surfaces. The same volume (20 μl) of vehicle was applied to each ear of a control group of mice. After 30 minutes, arachidonic acid was applied to the right ear of each mouse of each group in the amount of 4 mg/ear. Vehicle was applied to the left ear of each mouse of each group at a volume of 20 μl/ear. After an additional hour, the mice were sacrificed and a 4 mm plug was taken from each ear and weighed. The difference between the right and left ear plugs was determined for each animal. The antiinflammatory activity of the test compound is expressed as the mean percent change in the ear plug weight of the treated animals relative to the mean percent change in weights of control animals' ear. Antiinflammatory activity of representative compounds of the present invention as determined in this assay are presented below in Table 3.

Strept. pyogenes = experiment: Aerobic antibacterial assay (agar dilution, Mueller-Hinton agar); details: Strept. pyogenes 77 A; aerobic; 24 hours at 37° C.
[3] = system: female Swiss Webster mice; experiment: TPA-induced ear edema assay; type: in vivo; details: 10 μg/ear topical, after about 5 hours
Procedure: In the TPA-induced ear edema assay, TPA (12-O-tetradecanoylphorbol-13-acetate) was dissolved in 30/70 propylene glycol/ethanol and was applied to the right ear of groups of 6 female Swiss Webster mice, which were housed together in a cage under standard conditions for 1 week prior to use with food and water ad lib, at a volume of 20 μl so that a total of 10 μg of TPA is delivered to the inner and outer surfaces of the ear. The test compound was dissolved in the vehicle and was applied to the right ear (the inner and outer surface) at a volume of 20 μl so that a total of 10 μg of the compound was delivered to the ear. After about 5 hours, the animals were sacrificed, a 4 mm diameter plug was taken from each ear and weighed. The difference between the right and left ear plug weights for each animal was determined. The antiinflammatory activity of the test compound is expressed as the mean percent change in the ear plug weight of the treated animals compared to the mean percent change in the plug weight of the control animals.

Klebsiella spp. = experiment: Aerobic antibacterial assay (agar dilution, Mueller-Hinton agar); details: Klebsiella spp. 1522E; aerobic; 24 hours at 37° C.

CCCCCCCCCCC#Cc1ccc(C(O)C(N)CO)s1 (stereo not drawn) [erythro-2-Amino-1-[5-(1-Dodecynyl)-2-thienyl]-1,3-propanediol]
Antibacterial activity (MIC, mg/l) (Bact. fragilis; Bact. fragilis 312): 6.25 mg/L
Antibacterial activity (MIC, mg/l) (Bact. fragilis; Bact. fragilis 960): 6.25 mg/L
Antibacterial activity (MIC, mg/l) (Bact. fragilis; Bact. fragilis 1313): 6.25 mg/L
Antibacterial activity (MIC, mg/l) (Bact. fragilis; Bact. fragilis 17390): 3.13 mg/L
Antibacterial activity (MIC, mg/l) (Bact. fragilis; Bact. fragilis 18125): 3.13 mg/L
Antibacterial activity (MIC, mg/l) (Bact. fragilis; Bact. fragilis 19016): 6.25 mg/L
Antibacterial activity (MIC, mg/l) (Bact. vulgatus): 3.13 mg/L
Antibacterial activity (MIC, mg/l) (Spaeroph. freundii): 1.56 mg/L
Antifungal Activity MIC (Trichophyton Rubrum): 15.625 µg/mL
Antifungal Activity MIC (Candida Albicans): 1.950 µg/mL
Antifungal Activity MIC (Trichophyton Vaginalis): 15.625 µg/mL
Antifungal Activity MIC [1]: 3.900 µg/mL
Antifungal Activity MIC (Microsporum Canis): 3.900 µg/mL
Antifungal Activity MIC (Aspergillus Niger): 3.900 µg/mL
Antibacterial activity (MIC, mg/l) (Clost. tetani): 6.25 mg/L
Antibacterial activity (MIC, mg/l) (Propionibact. acnes; Propionibact. acnes 6919): 3.13 mg/L
Antibacterial activity (MIC, mg/l) (Propionibact. acnes; Propionibact. acnes 6922): 1.56 mg/L
Antibacterial activity (MIC, mg/l) (Bact. ovatus): 3.13 mg/L
Antibacterial activity (MIC, mg/l) (Bact. distasonis): 3.13 mg/L
Antibacterial activity (MIC, mg/l) (Fusobact. varium; Fusobact. varium 3085): 6.25 mg/L
Antibacterial activity (MIC, mg/l) (Fusobact. varium; Fusobact. varium 5262): 3.13 mg/L
Antibacterial activity (MIC, mg/l) (Bact. thetaiotaom.; Bact. thetaiotaom. 123): 3.13 mg/L
Antibacterial activity (MIC, mg/l) (Bact. thetaiotaom.; Bact. thetaiotaom. 1428): 6.25 mg/L
Antibacterial activity (MIC, mg/l) (Bact. thetaiotaom.; Bact. thetaiotaom. 1445): 3.13 mg/L
Antibacterial activity (MIC, mg/l) (Peptostr. anaerobius): 6.25 mg/L
Antibacterial activity (MIC, mg/l) (Clost. perfringens): 6.25 mg/L

CCCCCCCCCCc1cccc(C(O)C(N)CO)n1 (stereo not drawn) [erythro-2-amino-1-(6-decyl-2-pyridinyl)-1,3-dihydroxypropane]
pIC50 (Protein kinase C): 4.32
Antibacterial activity (MIC, mg/l) (E. cloacae): 12.50 mg/L
Antiinflammatory Activity Percent Decrease in Ear Plug Weight at 1 mg/ear [2]: 32%
Antibacterial activity (MIC, mg/l) (Strept. pyogenes): 6.25 mg/L
Antiinflammatory Activity Percent Decrease in Ear Plug Weight at 10 μg/ear [3]: 66%
Antibacterial activity (MIC, mg/l) (Propionibact. acnes; Propionibact. acnes 6922): 12.50 mg/L
Antibacterial activity (MIC, mg/l) (Fusobact. varium; Fusobact. varium 3085): 12.50 mg/L
Antibacterial activity (MIC, mg/l) (Klebsiella spp.): 12.50 mg/L

CCCCCCCCCCC#Cc1cccc([C@@H](O)[C@H](CO)NC(C)=O)n1 [erythro-N-{1-[6-(1-Dodecynyl)-2-pyridinyl]-1,3-dihydroxy-2-propanyl}acetamide]
Antibacterial activity (MIC, mg/l) (Bact. fragilis; Bact. fragilis 312): 3.13 mg/L
Antibacterial activity (MIC, mg/l) (Bact. fragilis; Bact. fragilis 960): 3.13 mg/L
Antibacterial activity (MIC, mg/l) (Bact. fragilis; Bact. fragilis 1313): 6.25 mg/L
Antibacterial activity (MIC, mg/l) (Bact. fragilis; Bact. fragilis 17390): 6.25 mg/L
Antibacterial activity (MIC, mg/l) (Bact. fragilis; Bact. fragilis 18125): 3.13 mg/L
Antibacterial activity (MIC, mg/l) (Bact. fragilis; Bact. fragilis 19016): 6.25 mg/L
Antibacterial activity (MIC, mg/l) (Bact. vulgatus): 3.13 mg/L
Antibacterial activity (MIC, mg/l) (Spaeroph. freundii): 3.13 mg/L
Antifungal Activity MIC (Trichophyton Rubrum): 31.250 µg/mL
Antifungal Activity MIC (Candida Albicans): 125.000 µg/mL
Antifungal Activity MIC (Trichophyton Vaginalis): 15.625 µg/mL
Antifungal Activity MIC [1]: 7.810 µg/mL
Antifungal Activity MIC (Microsporum Canis): 0.970 µg/mL
Antifungal Activity MIC (Aspergillus Niger): 125.000 µg/mL
Antibacterial activity (MIC, mg/l) (Clost. tetani): 12.50 mg/L
Antiinflammatory Activity Percent Decrease in Ear Plug Weight at 10 μg/ear [3]: 59%
Antibacterial activity (MIC, mg/l) (Propionibact. acnes; Propionibact. acnes 6919): 6.25 mg/L
Antibacterial activity (MIC, mg/l) (Propionibact. acnes; Propionibact. acnes 6922): 6.25 mg/L
Antibacterial activity (MIC, mg/l) (Bact. ovatus): 3.13 mg/L
Antibacterial activity (MIC, mg/l) (Bact. distasonis): 6.25 mg/L
Antibacterial activity (MIC, mg/l) (Fusobact. varium; Fusobact. varium 3085): 6.25 mg/L
Antibacterial activity (MIC, mg/l) (Fusobact. varium; Fusobact. varium 5262): 6.25 mg/L
Antibacterial activity (MIC, mg/l) (Bact. thetaiotaom.; Bact. thetaiotaom. 123): 3.13 mg/L
Antibacterial activity (MIC, mg/l) (Bact. thetaiotaom.; Bact. thetaiotaom. 1428): 6.25 mg/L
Antibacterial activity (MIC, mg/l) (Bact. thetaiotaom.; Bact. thetaiotaom. 1445): 6.25 mg/L
Antibacterial activity (MIC, mg/l) (Peptostr. anaerobius): 6.25 mg/L
Antibacterial activity (MIC, mg/l) (Clost. perfringens): 12.00 mg/L
